Data reported in patent US20260028336A1 (Arcus Biosciences, Inc., priority 2022, published 2026).

Tests used:
Jurkat cells = assay: IL-2 secretion assay in CD3/CD28-activated Jurkat cells (AlphaLISA); format: cell-based; settings: Homo sapiens, CD3/CD28 T Cell Activator, 24 h, IL-2 AlphaLISA
Protocol: Certain compounds were also evaluated in an IL-2 secretion assay. On the day of the assay, a 16 point, 1:2 master serial dilution of each compound was prepared in Opti-MEM to span a final concentration range of 10 μM to 300 pM. Assays were set up in CORNING® tissue culture-treated 384-well microplates containing 60 nL of each dilution. […] 50,000 cells/well and added to the compound plates. After a short spin (1200 rpm for 1 min), the plates were incubated at 37° C. for 1 hour. The cells were activated by adding 15 μL of IMMUNOCULT™ Human CD3/CD28 T Cell Activator ([…] Technologies) diluted in Opti-MEM. […] The AiphaLISA signal was measured using an EnVision plate reader (PerkinElmer). EC50 values were determined by fitting the data to a standard 4-parameter logistic equation.

Cbl-b = molecular target: T1, Cbl-b (Homo sapiens, UniProt Q13191); assay: Cbl-b probe displacement HTRF binding assay; settings: 0.4 nM biotinylated Cbl-b, 150 nM BODIPY probe
T1 construct: biotin (biotinylated)
Outline: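 Biotinylated Cbl-b was preincubated with compound for 60 min at room temperature in HEPES/NaCl/Triton/TCEP/BSA buffer. BODIPY probe was added for 15 min, followed by streptavidin-terbium, and the HTRF signal was read. Displacement was normalised to DMSO and no-protein controls, and affinity was obtained from a four-parameter dose-response fit.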

T1 sequence (Q13191 whole entry, species assumed): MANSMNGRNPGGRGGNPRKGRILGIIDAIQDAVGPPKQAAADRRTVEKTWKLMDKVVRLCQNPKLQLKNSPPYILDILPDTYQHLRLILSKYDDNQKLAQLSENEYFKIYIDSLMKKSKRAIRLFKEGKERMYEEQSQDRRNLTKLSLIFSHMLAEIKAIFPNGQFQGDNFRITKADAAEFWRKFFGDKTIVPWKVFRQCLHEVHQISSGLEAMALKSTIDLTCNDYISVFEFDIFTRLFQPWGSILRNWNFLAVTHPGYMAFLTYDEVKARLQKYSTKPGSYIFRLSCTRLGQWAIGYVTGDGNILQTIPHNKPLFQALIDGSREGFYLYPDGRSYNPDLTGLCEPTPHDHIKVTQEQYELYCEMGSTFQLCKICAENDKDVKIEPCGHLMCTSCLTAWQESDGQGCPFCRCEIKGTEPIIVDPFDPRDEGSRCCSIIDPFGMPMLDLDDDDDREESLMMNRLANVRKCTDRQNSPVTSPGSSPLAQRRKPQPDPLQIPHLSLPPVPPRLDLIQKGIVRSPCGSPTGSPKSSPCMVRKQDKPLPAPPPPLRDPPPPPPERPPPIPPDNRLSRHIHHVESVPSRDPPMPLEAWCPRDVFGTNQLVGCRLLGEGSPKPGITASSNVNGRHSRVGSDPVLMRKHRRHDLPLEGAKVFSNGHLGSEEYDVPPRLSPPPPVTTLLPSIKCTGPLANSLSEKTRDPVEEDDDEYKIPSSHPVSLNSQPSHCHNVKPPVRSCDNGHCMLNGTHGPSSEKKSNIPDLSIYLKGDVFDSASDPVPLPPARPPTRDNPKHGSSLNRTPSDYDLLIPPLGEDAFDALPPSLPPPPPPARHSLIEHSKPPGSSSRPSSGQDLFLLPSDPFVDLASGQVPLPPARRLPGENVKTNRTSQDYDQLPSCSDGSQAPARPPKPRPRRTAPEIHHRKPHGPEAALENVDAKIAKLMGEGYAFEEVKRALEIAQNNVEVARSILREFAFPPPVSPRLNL

Compound | EC50 (Jurkat cells) [nM] | IC50 (Cbl-b) [nM]
C[C@H]1CCCN(Cc2cc3c(C4CC4)cn(-c4cccc(C(O)(c5nncn5C)C5CCC5)c4)c(=O)c3[nH]2)C1 (stereo partly drawn) [Example 155, 6-[3-[cyclobutyl-hydroxy-(4-methyl-1,2,4-triazol-3-yl)methyl]phenyl]-4-cyclopropyl-2-[[(3S)-3-methylpiperidin-1-yl]methyl]-1H-pyrrolo[2,3-c]pyridin-7-one] | 100 to 1000 | < 100
Cn1nncc1-c1c[nH]c2c(=O)n(-c3cccc([C@]4(c5nncn5C)C[C@@H](C)C4)c3)cc(C3CC3)c12 [Example 133, 4-Cyclopropyl-3-(1-methyl-1H-1,2,3-triazol-5-yl)-6-{3-[(1R,3S)-3-methyl-1-(4-methyl-4H-1,2,4-triazol-3-yl)cyclobutyl]phenyl}-1H,6H,7H-pyrrolo[2,3-c]pyridin-7-one] | > 5000 | < 100
C[C@H]1CCCN(Cc2cc3c(C4CC4)cn(-c4cccc(C5(c6nncn6CC(F)F)CC6(CC6)C5)c4)c(=O)c3[nH]2)C1 [Example 146, 4-Cyclopropyl-6-[3-[5-[4-(2,2-difluoroethyl)-1,2,4-triazol-3-yl]spiro[2.3]hexan-5-yl]phenyl]-2-[[(3S)-3-methylpiperidin-1-yl]methyl]-1H-pyrrolo[2,3-c]pyridin-7-one] | 100 to 1000 | < 100
CC1CC(c2cccc(-n3cc(C4CC4)c4cc(CN[C@H]5CCOC5)[nH]c4c3=O)c2)(c2nncn2C)C1 (stereo partly drawn) [Example 56, 4-cyclopropyl-2-({[(3S)-oxolan-3-yl]amino}methyl)-6-{3-[(1r,3s)-3-methyl-1-(4-methyl-4H-1,2,4-triazol-3-yl)cyclobutyl]phenyl}-1H,6H,7H-pyrrolo[2,3-c]pyridin-7-one] | 100 to 1000 | < 100
CC1CC(c2cccc(-n3cc(C4CC4)c4c(-c5cnn(C)c5)c[nH]c4c3=O)c2)(c2nncn2C)C1 (mixture of isomers) [Example 131, 4-Cyclopropyl-3-(1-methyl-1H-pyrazol-4-yl)-6-{3-[(1R,3S)-3-methyl-1-(4-methyl-4H-1,2,4-triazol-3-yl)cyclobutyl]phenyl}-1H,6H,7H-pyrrolo[2,3-c]pyridin-7-one] | > 5000 | < 100
CC1CC(c2cccc(-n3cc(C4CC4)c4cc(CN(C)C)[nH]c4c3=O)c2)(c2nncn2C)C1 (centres unmarked) [Example 55, 4-cyclopropyl-2-[(dimethylamino)methyl]-6-{3-[3-methyl-1-(4-methyl-4H-1,2,4-triazol-3-yl)cyclobutyl]phenyl}-1H,6H,7H-pyrrolo[2,3-c]pyridin-7-one] | < 100 | < 100
CC1CC(c2cccc(-n3cc(C4CC4)c4cc(CN5CCN(C)C[C@@H]5C(C)C)[nH]c4c3=O)c2)(c2nncn2C)C1 (stereo partly drawn) [Example 68, 4-cyclopropyl-2-{[(2S)-4-methyl-2-(propan-2-yl)piperazin-1-yl]methyl}-6-{3-[(1r,3s)-3-methyl-1-(4-methyl-4H-1,2,4-triazol-3-yl)cyclobutyl]phenyl}-1H,6H,7H-pyrrolo[2,3-c]pyridin-7-one] | 100 to 1000 | < 100
C[C@H]1CCCN(Cc2cc3c(C4CC4)cn(-c4cccc([C@]5(c6nccn6C)C[C@H](F)C5)c4)c(=O)c3[nH]2)C1 [Example 126, 4-cyclopropyl-6-(3-((1r,3S)-3-fluoro-1-(1-methyl-1H-imidazol-2-yl)cyclobutyl)phenyl)-2-(((S)-3-methylpiperidin-1-yl)methyl)-1,6-dihydro-7H-pyrrolo[2,3-c]pyridin-7-one] | < 100 | < 100
O=c1c2[nH]c(CNCC3(O)CCC3)cc2c(C2CC2)cn1-c1cccc([C@]2(c3nncn3C(F)F)C[C@H](OC(F)F)C2)c1 [Example 152, 4-cyclopropyl-2-({[(1-hydroxycyclobutyl)methyl]amino}methyl)-6-(m-{(1r,3r)-3-difluoromethoxy-1-[4-(difluoromethyl)-4H-1,2,4-triazol-3-yl]cyclobutyl}phenyl)-1,6-dihydro-1,6-diaza-7-indenone] | 1000 to 5000 | < 100
C[C@H]1CCCN(Cc2cc3c(C4CC4)cn(-c4cccc([C@]5(c6nccn6C)C[C@H](OC(F)F)C5)c4)c(=O)c3[nH]2)C1 [Example 97, 4-cyclopropyl-6-[3-[3-(difluoromethoxy)-1-(1-methylimidazol-2-yl)cyclobutyl]phenyl]-2-[[(3S)-3-methylpiperidin-1-yl]methyl]-1H-pyrrolo[2,3-c]pyridin-7-one] | 100 to 1000 | < 100
C[C@H]1CCCN(Cc2cc3c(C4CC4)cn(-c4cccc(C5(Cn6cccn6)CC(F)(F)C5)c4)c(=O)c3[nH]2)C1 [Example 124] | 100 to 1000 | 100 to 1000
CC1CC(c2cccc(-n3cc(C4CC4)c4cc(CN5C[C@@H](F)C[C@H](F)C5)[nH]c4c3=O)c2)(c2nncn2C)C1 (stereo partly drawn) [Example 65, 4-cyclopropyl-2-{[(3S,5S)-3,5-difluoropiperidin-1-yl]methyl}-6-{3-[(1r,3s)-3-methyl-1-(4-methyl-4H-1,2,4-triazol-3-yl)cyclobutyl]phenyl}-1H,6H,7H-pyrrolo[2,3-c]pyridin-7-one] | 1000 to 5000 | < 100
Cn1cnnc1[C@]1(c2cccc(-n3cc(S(C)(=O)=O)c4cc[nH]c4c3=O)c2)C[C@H](C)C1 (single isomer, unassigned) [Example 108, 6-[3-[3-methyl-1-(4-methyl-1,2,4-triazol-3-yl)cyclobutyl]phenyl]-4-methylsulfonyl-1H-pyrrolo[2,3-c]pyridin-7-one] | > 5000 | 100 to 1000
Cn1cnnc1CC1(c2cccc(-n3cc(C4CC4)c4cc(CN5CCC6(CC6)C5)[nH]c4c3=O)c2)COC1 [Example 76, 2-({5-azaspiro[2.4]heptan-5-yl}methyl)-4-cyclopropyl-6-(3-{3-[(4-methyl-4H-1,2,4-triazol-3-yl)methyl]oxetan-3-yl}phenyl)-1H,6H,7H-pyrrolo[2,3-c]pyridin-7-one] | 100 to 1000 | < 100

Second part, the molecule after the results:

EC50 (Jurkat cells) [nM] | IC50 (Cbl-b) [nM] | Compound
< 100 | < 100 | C[C@H]1CCCN(Cc2cc3c(C4CC4)cn(-c4cccc([C@]5(c6nncn6C)C[C@H](OC(F)F)C5)c4)c(=O)c3[nH]2)C1 [Example 95, trans-4-cyclopropyl-6-[3-[3-(difluoromethoxy)-1-(4-methyl-1,2,4-triazol-3-yl)cyclobutyl]phenyl]-2-[[(3S)-3-methylpiperidin-1-yl]methyl]-1H-pyrrolo[2,3-c]pyridin-7-one]
< 100 | < 100 | C[C@H]1CCCN(Cc2cc3c(C4CC4)cn(-c4cccc(C5(c6nncn6C)CC(F)(F)C5)c4)c(=O)c3[nH]2)C1 [Example 78, 4-cyclopropyl-6-[3-[3,3-difluoro-1-(4-methyl-1,2,4-triazol-3-yl)cyclobutyl]phenyl]-2-[[(3S)-3-methylpiperidin-1-yl]methyl]-1H-pyrrolo[2,3-c]pyridin-7-one]
< 100 | < 100 | C[C@H]1CCCN(Cc2nc3c(C4CC4)cn(-c4cccc([C@]5(c6nncn6C)C[C@H](C)C5)c4)c(=O)c3[nH]2)C1 [Example 109, 7-cyclopropyl-5-[3-[3-methyl-1-(4-methyl-1,2,4-triazol-3-yl)cyclobutyl]phenyl]-2-[[(3S)-3-methylpiperidin-1-yl]methyl]-3H-imidazo[4,5-c]pyridin-4-one]
> 5000 | 100 to 1000 | C[C@@H]1CN(Cc2nc3c(C(F)(F)F)cn(-c4cccc(C5(c6nncn6C)CC(F)(F)C5)c4)c(=O)c3[nH]2)CCO1 [Example 114, 5-[3-[3,3-difluoro-1-(4-methyl-1,2,4-triazol-3-yl)cyclobutyl]phenyl]-2-[[(2R)-2-methylmorpholin-4-yl]methyl]-7-(trifluoromethyl)-3H-imidazo[4,5-c]pyridin-4-one]
> 5000 | > 5000 | Cn1cnnc1C1(c2cccc(-n3cc(C4CC4)c4cc(CNc5ccc(Cl)cc5F)[nH]c4c3=O)c2)CC(F)(F)C1 [Example 90, 2-{[(4-chloro-2-fluorophenyl)amino]methyl}-4-cyclopropyl-6-{3-[3,3-difluoro-1-(4-methyl-4H-1,2,4-triazol-3-yl)cyclobutyl]phenyl}-1H,6H,7H-pyrrolo[2,3-c]pyridin-7-one]
> 5000 | 1000 to 5000 | Cn1cnnc1C1(c2cccc(-n3cc(C(F)(F)F)c4nc(CN5CCC(F)(F)C5)[nH]c4c3=O)c2)CC(F)(F)C1 [Example 115, 5-[3-[3,3-difluoro-1-(4-methyl-1,2,4-triazol-3-yl)cyclobutyl]phenyl]-2-[(3,3-difluoropyrrolidin-1-yl)methyl]-7-(trifluoromethyl)-3H-imidazo[4,5-c]pyridin-4-one]
< 100 | < 100 | C[C@H]1CCCN(Cc2nc3c(C(F)(F)F)cn(-c4cccc(C5(c6nncn6C)CC(F)(F)C5)c4)c(=O)c3[nH]2)C1 [Example 113, 5-[3-[3,3-difluoro-1-(4-methyl-1,2,4-triazol-3-yl)cyclobutyl]phenyl]-2-[[(3S)-3-methylpiperidin-1-yl]methyl]-7-(trifluoromethyl)-3H-imidazo[4,5-c]pyridin-4-one]
1000 to 5000 | 100 to 1000 | Cn1cnnc1C1(c2cccc(-n3cc(C4CC4)c4cc(CN5CC[C@@H](F)[C@H](O)C5)[nH]c4c3=O)c2)CC(F)(F)C1 [Example 93, 4-cyclopropyl-6-{3-[3,3-difluoro-1-(4-methyl-4H-1,2,4-triazol-3-yl)cyclobutyl]phenyl}-2-{[(3R,4R)-4-fluoro-3-hydroxypiperidin-1-yl]methyl}-1H,6H,7H-pyrrolo[2,3-c]pyridin-7-one]
